From patent US20240116985A1, “STAPLED PEPTIDES AND METHODS THEREOF” (priority 2020, published 2024)
pEC50: −log10 of the molar value.

How the values were obtained:
[1] = molecular target: T1, full-length B-Catenin (Uniprot ID P35222) (Homo sapiens, UniProt P35222); assay: Alphascreen binding assay (beta-catenin / biotin-TCF4 10-53)
T1 construct: 65 nM full-length B-Catenin (Uniprot ID P35222)
T1 sequence (P35222 1-781): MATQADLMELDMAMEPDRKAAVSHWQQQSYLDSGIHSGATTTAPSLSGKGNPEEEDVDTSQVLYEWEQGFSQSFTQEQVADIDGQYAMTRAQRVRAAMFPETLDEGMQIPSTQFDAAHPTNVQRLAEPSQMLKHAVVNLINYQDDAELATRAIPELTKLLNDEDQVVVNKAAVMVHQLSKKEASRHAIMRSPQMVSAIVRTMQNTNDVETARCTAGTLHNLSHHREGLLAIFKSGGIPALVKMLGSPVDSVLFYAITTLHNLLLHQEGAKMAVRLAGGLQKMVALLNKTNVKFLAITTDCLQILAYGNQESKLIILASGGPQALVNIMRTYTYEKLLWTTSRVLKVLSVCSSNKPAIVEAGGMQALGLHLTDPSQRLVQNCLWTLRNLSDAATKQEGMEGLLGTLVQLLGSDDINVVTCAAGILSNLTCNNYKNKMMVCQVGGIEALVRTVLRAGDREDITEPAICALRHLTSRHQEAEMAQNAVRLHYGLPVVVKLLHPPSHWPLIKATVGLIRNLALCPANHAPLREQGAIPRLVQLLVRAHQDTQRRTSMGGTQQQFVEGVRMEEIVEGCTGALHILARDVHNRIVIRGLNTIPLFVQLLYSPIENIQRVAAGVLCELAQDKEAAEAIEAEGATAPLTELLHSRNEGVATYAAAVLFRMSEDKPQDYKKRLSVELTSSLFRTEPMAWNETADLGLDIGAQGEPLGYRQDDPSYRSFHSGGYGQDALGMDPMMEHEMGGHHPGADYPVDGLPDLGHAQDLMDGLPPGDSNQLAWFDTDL
Outline: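 AlphaScreen (Ni-chelate beads) competition in 50 mM Tris pH 8.0, 250 mM NaCl with detergents and 0.1% BSA. Peptide titrated 10 uM–5 nM against 65 nM human β-catenin bound to 10 nM biotinylated TCF4 10-53, 15 min then 60 min with beads, both at 20 °C; 1:1 Hill-slope fit.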

CHI Log D procedure = type: physicochemical; details: for CHI Log D: pH 7.4; for chromatographic logD: pH 7.4, CHI Log D

| SMILES | pEC50 [1] | CHI Log D (CHI Log D procedure) | chromatographic logD (CHI Log D procedure) |
| --- | --- | --- | --- |
| CC(=O)N1CCC[C@]12CC=CCCCC1(CCCC=CCCCCCC[C@@](C)(C(=O)N[C@@H](Cc3ccccc3)C(=O)N[C@@H](Cc3c[nH]c4ccccc34)C(=O)N[C@@H](CCC(N)=O)C(N)=O)NC(=O)[C@H](C(C)C)NC(=O)[C@H](Cc3ccccc3)NC(=O)[C@H](C)NC(=O)[C@H](C)NC(=O)[C@H](CC(N)=O)NC(=O)[C@H](CC(=O)O)NC1=O)NC(=O)[C@H](C)NC(=O)[C@H](CC(=O)O)NC2=O (stereo partly drawn) [I-124, Ac-PL3-Asp-Ala-B5-Asp-Asn-Ala-Ala-Phe-Val-S8-Phe-Trp-Gln-NH2] | 5.89 | 2.252 |  |
| CC(=O)N[C@@H](Cc1ccccc1)C(=O)N[C@@H](CC(=O)O)C(=O)N[C@@H](C)C(=O)N[C@]1(C)CCCC=CCOC(=O)N(C)CCC[C@@](C)(C(=O)N[C@@H](Cc2ccccc2)C(=O)N[C@@H](Cc2c[nH]c3ccccc23)C(=O)N[C@@H](CCC(N)=O)C(N)=O)NC(=O)[C@H](C(C)C)NC(=O)[C@H](Cc2ccccc2)NC(=O)[C@H](C)NC(=O)[C@H](C)NC(=O)[C@H](CC(=O)O)NC(=O)[C@H](CC(=O)O)NC1=O [I-25, Ac-Phe-Asp-Ala-R5-Asp-Asp-Ala-Ala-Phe-Val-SeN-Phe-Trp-Gln-NH2] | 5.14 |  | 1.17 |
| CC(=O)N[C@@H](Cc1ccccc1)C(=O)N[C@@H](CC(=O)O)C(=O)N[C@@H](C)C(=O)N[C@]1(C)CCCCCCC=CCOC(=O)N2CC[C@@](C(=O)N[C@@H](Cc3ccccc3)C(=O)N[C@@H](Cc3c[nH]c4ccccc34)C(=O)N[C@@H](CCC(N)=O)C(N)=O)(C2)NC(=O)[C@H](C(C)C)NC(=O)[C@H](Cc2ccccc2)NC(=O)[C@H](C)NC(=O)[C@H](C)NC(=O)[C@H](CCCC(=O)O)NC(=O)[C@H](CC(=O)O)NC1=O [I-6, Ac-Phe-Asp-Ala-R8-Asp-Aad-Ala-Ala-Phe-Val-PyrS-Phe-Trp-Gln-NH2] | 5.19 | 1.378 |  |
| CC(=O)NC(C)(C)C(=O)N[C@@H](CC(=O)O)C(=O)N[C@@H](C)C(=O)N[C@]1(C)CCCCCCC=CCOC(=O)N2CC[C@@](C(=O)N[C@@H](Cc3ccccc3)C(=O)N[C@@H](Cc3c[nH]c4ccccc34)C(=O)NC(C)(C)C(N)=O)(C2)NC(=O)[C@H](C(C)C)NC(=O)[C@H](Cc2ccccc2)NC(=O)[C@H](C)NC(=O)[C@H](C)NC(=O)[C@H](CCC(=O)O)NC(=O)[C@H](CC(=O)O)NC1=O [I-160, Ac-Aib-Asp-Ala-R8-Asp-Glu-Ala-Ala-Phe-Val-PyrS-Phe-Trp-Aib-NH2] | 5.49 | 1.49 |  |
| CC(=O)N1CCC[C@]12CC=CCCCC1(CCCC=CCCCCCC[C@@](C)(C(=O)N[C@@H](Cc3cccc(C(F)(F)F)c3)C(=O)N[C@@H](Cc3c[nH]c4ccccc34)C(=O)N[C@@H](CCC(N)=O)C(N)=O)NC(=O)[C@H](C(C)C)NC(=O)[C@H](Cc3ccccc3)NC(=O)[C@H](C)NC(=O)[C@H](C)NC(=O)[C@H](CC(=O)O)NC(=O)[C@H](CC(=O)O)NC1=O)NC(=O)[C@H](C)NC(=O)[C@H](CC(=O)O)NC2=O (stereo partly drawn) [I-250, Ac-PL3-Asp-Ala-B5-Asp-Asp-Ala-Ala-Phe-Val-S8-3F3MeF-Trp-Gln-NH2] | 5.92 | 2.299 |  |
| CC(=O)N1CCC[C@]12CC=CCCCC1(CCCC=CCOC(=O)N(C)CCC[C@@](C)(C(=O)N[C@@H](Cc3ccccc3)C(=O)N[C@@H](Cc3c[nH]c4ccccc34)C(=O)N[C@@H](CCC(N)=O)C(N)=O)NC(=O)[C@H](C(C)C)NC(=O)[C@H](Cc3ccccc3)NC(=O)[C@H](C)NC(=O)[C@H](C)NC(=O)[C@H](CCC(=O)O)NC(=O)[C@H](CC(=O)O)NC1=O)NC(=O)[C@H](C)NC(=O)[C@H](CC(=O)O)NC2=O (stereo partly drawn) [I-130, Ac-PL3-Asp-Ala-B5-Asp-Glu-Ala-Ala-Phe-Val-SeN-Phe-Trp-Gln-NH2] | 6.10 | 1.346 |  |
| CC(=O)N1CCC[C@]12CC=CCCCC1(CCCC=CCCCCCC[C@@](C)(C(=O)N[C@@H](Cc3ccccc3)C(=O)N[C@@H](Cc3c[nH]c4ccccc34)C(=O)N[C@@H](CCC(N)=O)C(N)=O)NC(=O)[C@H](C(C)C)NC(=O)[C@H](Cc3cc(F)c(F)c(F)c3)NC(=O)[C@H](C)NC(=O)[C@H](C)NC(=O)[C@H](CCC(=O)O)NC(=O)[C@H](CC(=O)O)NC1=O)NC(=O)[C@H](C)NC(=O)[C@H](CC(=O)O)NC2=O (stereo partly drawn) [I-210, Ac-PL3-Asp-Ala-B5-Asp-Glu-Ala-Ala-345FF-Val-S8-Phe-Trp-Gln-NH2] | 5.85 | 2.088 |  |
| CC(=O)N[C@@H](Cc1ccccc1)C(=O)N[C@@H](CC(=O)O)C(=O)N[C@@H](C)C(=O)N[C@]1(C)CCCCCC=CCOC(=O)N2CC[C@@](C(=O)N[C@@H](Cc3ccccc3)C(=O)N[C@@H](Cc3c[nH]c4ccccc34)C(=O)N[C@@H](CCC(N)=O)C(N)=O)(C2)NC(=O)[C@H](C(C)C)NC(=O)[C@H](Cc2ccccc2)NC(=O)[C@H](C)NC(=O)[C@H](C)NC(=O)[C@H](CC(=O)O)NC(=O)[C@H](CC(=O)O)NC1=O [I-30, Ac-Phe-Asp-Ala-R7-Asp-Asp-Ala-Ala-Phe-Val-PyrS-Phe-Trp-Gln-NH2] | 5.05 | 1.228 |  |
| CC(=O)N1CCC[C@]12CC=CCCCC1(CCCC=CCCCCCC[C@@](C)(C(=O)N[C@@H](Cc3ccccc3)C(=O)N[C@@H](Cc3ccc4ccccc4c3)C(=O)N[C@@H](C)C(N)=O)NC(=O)[C@H](C)NC(=O)[C@H](Cc3ccc(F)c(F)c3)NC(=O)[C@H](C)NC(=O)[C@H](C)NC(=O)[C@H](CCC(=O)O)NC(=O)[C@H](CC(=O)O)NC1=O)NC(=O)[C@H](C)NC(=O)[C@H](CC(=O)O)NC2=O (stereo partly drawn) [I-185, Ac-PL3-Asp-Ala-B5-Asp-Glu-Ala-Ala-34FF-Ala-S8-Phe-2NapA-Ala-NH2] | 5.57 |  | 2.3 |
| CC(=O)N1CCC[C@]12CC=CCCCC1(CCCC=CCCCCCC[C@@](C)(C(=O)N[C@@H](Cc3ccccc3)C(=O)N[C@@H](Cc3c[nH]c4ccccc34)C(=O)N[C@@H](CCC(N)=O)C(N)=O)NC(=O)[C@H](C(C)C)NC(=O)[C@H](Cc3cccc(C(F)(F)F)c3)NC(=O)[C@H](C)NC(=O)[C@H](C)NC(=O)[C@H](CC(=O)O)NC(=O)[C@H](CC(=O)O)NC1=O)NC(=O)[C@H](C)NC(=O)[C@H](CC(=O)O)NC2=O (stereo partly drawn) [I-237, Ac-PL3-Asp-Ala-B5-Asp-Asp-Ala-Ala-3F3MeF-Val-S8-Phe-Trp-Gln-NH2] | 6.42 | 2.067 |  |
| CC(=O)NC(C)(C)C(=O)N[C@@H](CC(=O)O)C(=O)N[C@@H](C)C(=O)N[C@]1(C)CCCCCCC=CCOC(=O)N2CC[C@@](C(=O)N[C@@H](Cc3ccccc3)C(=O)N[C@@H](Cc3c[nH]c4ccccc34)C(=O)N[C@@H](CCC(N)=O)C(N)=O)(C2)NC(=O)[C@H](C(C)C)NC(=O)[C@H](Cc2ccccc2)NC(=O)[C@H](C)NC(=O)[C@H](C)NC(=O)[C@H](CCC(=O)O)NC(=O)[C@H](CC(=O)O)NC1=O [I-158, Ac-Aib-Asp-Ala-R8-Asp-Glu-Ala-Ala-Phe-Val-PyrS-Phe-Trp-Gln-NH2] | 5.66 | 1.23 |  |
| CC(=O)N1CCC[C@]12CC=CCCCC1(CCCC=CCCCCCC[C@@](C)(C(=O)N[C@@H](Cc3ccc4ccccc4c3)C(=O)N[C@@H](Cc3c[nH]c4ccccc34)C(=O)N[C@@H](CCC(N)=O)C(N)=O)NC(=O)[C@H](C(C)C)NC(=O)[C@H](Cc3ccccc3)NC(=O)[C@H](C)NC(=O)[C@H](C)NC(=O)[C@H](CC(=O)O)NC(=O)[C@H](CC(=O)O)NC1=O)NC(=O)[C@H](C)NC(=O)[C@H](CC(=O)O)NC2=O (stereo partly drawn) [I-278, Ac-PL3-Asp-Ala-B5-Asp-Asp-Ala-Ala-Phe-Val-S8-2NapA-Trp-Gln-NH2] | 5.65 | 2.209 |  |
